The values below come from patent publication US12605369B2, “Amido-substituted heterocyclic compounds and methods of use thereof for the treatment of herpes viruses” (Merck Sharp & Dohme LLC, priority 2019, dated 2026).

pEC50, pIC50: −log10 of the molar value.

The test system of one experiment is HCMV Strain AD169. Kind of experiment: Viral qPCR assay, HCMV (Example 14). It is filed as cell-based. As to conditions: Human betaherpesvirus 5, AD169, MRC5, 72 h, Strain AD169 in MRC-5 cells, 0.05-0.1 pfu/cell, ~72 hours, viral genome copy number by qPCR; growth media or 50% fetal bovine serum; read-out: CMV Cell EC50. As to the method:
(§1) MRCS and Vero cells were obtained from ATCC and were maintained at 37° C./5% CO2/90% relative humidity in Minimal Essential Medium with 10% fetal bovine serum, […], 100 units/mL penicillin and 100 ug/mL streptomycin. Assay plates were prepared by dispensing compounds dissolved in DMSO into wells of 384 well collagen-coated plates using an ECHO acoustic dispenser. Each test compound was tested in a 10-point, serial 3-fold dilution. Controls included uninfected cells and infected cells treated only with DMSO. Assays were initiated by mixing selected cells, in suspension, with virus, and dispensing 50 μl/well infected cells to pre-plated compounds. Plates were incubated at 37° C./5% CO2/90% relative humidity for ˜72 hours to permit genomic replication, and infected cells were lysed by the addition of an equal volume of lysis buffer (10 mM Tris-HCl, pH8, 50 mM KCl, 2 mM MgCl2, 0.45% NP-40, 0.45% Tween-20, and 100 μg/mL proteinase K). An aliquot of the lysate was then transferred to a 384-well PCR plate and incubated at 56° C. for 1 hour, and then at 95° C. for 10 minutes. Levels of a viral gene were measured in 10 ul qPCR assays using TaqMan® Gene Expression Master Mix (Applied Biosystems) and an 7900HT Fast Real-Time PCR System with 384-Well Block Module. 7-point, serial 10-fold dilutions of a plasmid standard were run on each plate to generate a standard curve, and genome copies numbers were calculated by plotting experimental Ct onto linear regression of the standard curve. Compound effects on viral genome copy number were normalized to the window defined by the controls. Calculated % effects were fit using a 4-parameter algorithm, and EC50 was reported. • HCMV: Strain AD169 was assayed in MRC-5 cells and was used at 0.05-0.1 pfu/cell. The assays were performed in either growth media or in the same media with 50% fetal bovine serum. Primer-probe set was Thermo Fisher Assay ID=AIFATFK. • HSV-1: Strain F was assayed in Vero or MRCS cells and was used at 0.0005-0.004 pfu/cell in growth medium. Primer-probe set was Thermo Fisher Assay ID=AIBJZIB. • HSV-2: Strain G was assayed in Vero or MRCS cells and was used at 0.004-0.4 pfu/cell in growth medium. Primer-probe set was Thermo Fisher Assay ID=AICSXOJ.
(In general: In qPCR the cycle at which signal appears reflects the starting amount.)

The subject of the next experiment is HSV-1 Strain F. Kind of experiment: Viral qPCR assay, HSV-1 (Example 14). Format: cell-based. As to conditions: Human alphaherpesvirus 1, Vero, 72 h, Strain F in Vero or MRCS cells, 0.0005-0.004 pfu/cell, viral genome copy number by qPCR, read-out: HSV1 Cell EC50. As to the method:
as §1

The subject of a further experiment is HSV-2 Strain G. Kind of experiment: Viral qPCR assay, HSV-2 (Example 14). It is filed as cell-based. As to conditions: Human alphaherpesvirus 2, Vero, 72 h, Strain G in Vero or MRCS cells, 0.004-0.4 pfu/cell, viral genome copy number by qPCR, read-out: HSV2 Cell EC50. As to the method:
as §1

The target in experiment [1] is T1, Human cytomegalovirus DNA polymerase (Human cytomegalovirus, UniProt P08546).
T1 construct: made in house; host or cells: SF21 insect cells (baculovirus vector)
T1 sequence (P08546 whole entry): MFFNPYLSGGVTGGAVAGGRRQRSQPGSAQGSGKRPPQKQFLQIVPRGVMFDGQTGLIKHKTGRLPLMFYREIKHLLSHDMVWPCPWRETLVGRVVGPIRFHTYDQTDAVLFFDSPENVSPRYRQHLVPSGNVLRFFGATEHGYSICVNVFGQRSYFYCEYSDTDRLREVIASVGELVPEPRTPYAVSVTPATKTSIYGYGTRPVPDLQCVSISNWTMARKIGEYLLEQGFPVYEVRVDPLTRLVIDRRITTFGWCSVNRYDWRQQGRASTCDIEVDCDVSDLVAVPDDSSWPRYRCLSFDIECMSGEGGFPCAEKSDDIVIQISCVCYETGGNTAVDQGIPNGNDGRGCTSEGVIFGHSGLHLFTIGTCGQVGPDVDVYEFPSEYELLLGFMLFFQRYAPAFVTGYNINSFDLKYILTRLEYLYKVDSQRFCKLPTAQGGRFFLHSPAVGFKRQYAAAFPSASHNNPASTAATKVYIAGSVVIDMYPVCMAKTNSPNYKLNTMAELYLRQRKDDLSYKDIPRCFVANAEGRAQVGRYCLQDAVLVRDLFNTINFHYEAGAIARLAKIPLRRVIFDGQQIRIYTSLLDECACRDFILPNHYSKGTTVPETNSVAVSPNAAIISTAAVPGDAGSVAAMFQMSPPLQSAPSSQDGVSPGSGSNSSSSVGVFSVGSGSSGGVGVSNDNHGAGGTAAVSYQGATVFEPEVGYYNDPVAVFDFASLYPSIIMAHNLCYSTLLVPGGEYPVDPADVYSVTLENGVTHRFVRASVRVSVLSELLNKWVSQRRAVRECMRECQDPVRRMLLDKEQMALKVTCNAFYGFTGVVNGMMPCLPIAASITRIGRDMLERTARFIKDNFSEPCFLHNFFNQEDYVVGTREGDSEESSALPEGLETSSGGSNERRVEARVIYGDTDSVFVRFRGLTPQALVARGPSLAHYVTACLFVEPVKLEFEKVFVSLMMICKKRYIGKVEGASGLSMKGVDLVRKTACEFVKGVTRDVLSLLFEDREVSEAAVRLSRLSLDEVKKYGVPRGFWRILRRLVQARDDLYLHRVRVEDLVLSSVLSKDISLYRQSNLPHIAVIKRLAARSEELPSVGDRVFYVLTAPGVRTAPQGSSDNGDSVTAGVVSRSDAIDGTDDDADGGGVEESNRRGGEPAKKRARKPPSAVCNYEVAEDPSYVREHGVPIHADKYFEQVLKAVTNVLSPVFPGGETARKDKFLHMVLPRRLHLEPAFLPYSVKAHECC
Kind of experiment: CMV polymerase assay (AlphaLISA, Example 15). Format: biochemical. As to conditions: HCMV polymerase 0.2 nM; 30 min pre-incubation; 60 min at 37° C. As to the method:
(§2) CMV and VZW Polymerase Assays
(§3) Human cytomegalovirus and varicella zoster virus DNA polymerases were expressed via baculovirus vector in SF21 cells and purified. Heterodimeric nucleic acid substrate used in the herpesvirus polymerase reactions were generated by annealing a 59-mer template to a 17-mer digoxigenin-labeled primer. Polymerase (HCMV final concentration of 0.2 nM; VZV final concentration of 0.4 nM) was combined with an inhibitor compound or DMSO in assay buffer (10 mM HEPES, pH 7.5, 25 mM KCl, 25 mM NaCl, 5 mM MgCl2, 5% glycerol, 0.67 mg/ml bovine serum albumin, and 1 mM tris(2-carboxyethyl)phosphine)), and this mixture was pre-incubated for 30 minutes at room temperature in 384-well microtiter plates. The polymerization reaction was initiated by the addition of template/primer substrate (final concentration: 1.6 nM) and dNTPs (final concentration: 24 nM dCTP, 24 nMdGTP, 16 nM dATP, 16 nM dTTP, and 0.8 nM biotin-dUTP). After a 60 minute incubation period at 37° C., the reactions were terminated using quench buffer (25 mM HEPES pH 7.5, 100 mM NaCl, 0.25% Tween-20, 12 mM EDTA, and 1 mg/ml bovine serum albumin). Incorporation of biotinylated UTP was detected with 2.5-5 μg/mL anti-DIG AlphaLISA acceptor beads and 5-10 μg/mL streptavidin AlphaLISA donor beads (PerkinElmer). Compound effects were normalized to the window defined by the controls (DMSO only and pre-quenched wells) and were fit using a 4-parameter algorithm to report an IC50.
On the technique in general: Bead proximity is the source of the signal in Alpha formats.

The target in experiment [2] is T2, varicella zoster virus DNA polymerase (Varicella-zoster virus, UniProt P09252).
T2 construct: made in house; host or cells: SF21 insect cells (baculovirus vector)
T2 sequence (P09252 whole entry): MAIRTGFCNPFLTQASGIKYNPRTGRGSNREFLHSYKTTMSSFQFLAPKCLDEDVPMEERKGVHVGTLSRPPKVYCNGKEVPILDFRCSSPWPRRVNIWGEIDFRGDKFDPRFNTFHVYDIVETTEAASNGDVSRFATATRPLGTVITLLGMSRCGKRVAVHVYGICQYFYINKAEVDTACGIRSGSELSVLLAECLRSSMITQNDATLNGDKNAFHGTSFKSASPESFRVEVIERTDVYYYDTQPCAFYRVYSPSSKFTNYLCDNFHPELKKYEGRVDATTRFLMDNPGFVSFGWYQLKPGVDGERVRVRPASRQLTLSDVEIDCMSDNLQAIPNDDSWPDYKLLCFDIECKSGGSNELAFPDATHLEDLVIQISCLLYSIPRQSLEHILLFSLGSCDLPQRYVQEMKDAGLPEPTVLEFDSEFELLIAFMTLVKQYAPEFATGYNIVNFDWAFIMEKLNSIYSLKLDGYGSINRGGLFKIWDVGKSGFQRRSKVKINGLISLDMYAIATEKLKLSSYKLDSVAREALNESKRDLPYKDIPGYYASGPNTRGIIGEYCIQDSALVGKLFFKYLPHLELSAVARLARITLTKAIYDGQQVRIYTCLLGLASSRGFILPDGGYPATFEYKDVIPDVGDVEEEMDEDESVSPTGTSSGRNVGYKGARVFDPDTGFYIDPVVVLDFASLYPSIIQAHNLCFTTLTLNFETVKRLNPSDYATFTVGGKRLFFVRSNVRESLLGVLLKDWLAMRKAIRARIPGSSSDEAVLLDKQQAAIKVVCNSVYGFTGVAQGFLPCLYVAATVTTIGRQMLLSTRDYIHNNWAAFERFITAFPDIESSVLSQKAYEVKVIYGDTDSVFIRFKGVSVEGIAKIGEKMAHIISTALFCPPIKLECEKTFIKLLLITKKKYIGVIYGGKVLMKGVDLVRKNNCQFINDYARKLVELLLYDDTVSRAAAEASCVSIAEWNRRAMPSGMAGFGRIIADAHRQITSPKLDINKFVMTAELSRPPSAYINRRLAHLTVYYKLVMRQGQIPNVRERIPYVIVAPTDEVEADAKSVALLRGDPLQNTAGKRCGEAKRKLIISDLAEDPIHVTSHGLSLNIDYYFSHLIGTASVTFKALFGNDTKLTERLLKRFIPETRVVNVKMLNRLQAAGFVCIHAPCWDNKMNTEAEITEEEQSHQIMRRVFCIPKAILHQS
Kind of experiment: VZV polymerase assay (AlphaLISA, Example 15). It is filed as biochemical. As to conditions: VZV polymerase 0.4 nM; 30 min pre-incubation; 60 min at 37° C. As to the method: as §2, §3

The term pEC50 denotes the EC50 on a negative log10 scale, so that one unit is a factor of ten. A word on the pIC50: it is the IC50 on a negative log10 scale, so that one unit is a factor of ten. High values mean a small IC50, low ones a large IC50.

`COc1nc(NC(=O)C2CCc3cc(C#N)ccc32)ccc1C[C@H]1COC(=O)N1` (stereo partly drawn) [Compound 19]: the pEC50 in the experiment with HCMV Strain AD169 was 6.32; in the experiment with HSV-1 Strain F, 6.51; with HSV-2 Strain G, 6.59. Moreover, the results for the pIC50 in experiment [1] and in experiment [2] were 8.00 and 8.15, respectively.
The corresponding values for `COc1nc(N2CCC(c3ccc(C#N)cc3)C2=O)ccc1C[C@H]1COC(=O)N1` (stereo partly drawn) [Compound 20] are 6.92, 6.91, 6.88, 8.22 and 8.30.
Taken in the same sequence, the figures for `COc1nc(NC(=O)C2CCc3cc(C#N)ccc3O2)ccc1C[C@H]1COC(=O)N1` (stereo partly drawn) [Compound 23] were 7.42, 7.36, 7.25, 9.40 and 9.40.
